Like-named read-outs stand apart in the source and are kept apart here.
What was measured:
Y79 cell line = experiment: Retinoblastoma cell proliferation inhibition assay (Cell Titer Glo, 72 hour incubation); format: cell-based, human
BJ cell line [1] = conditions: BJ cell line (normal fibroblast), 72 hour incubation
[2] = tested on: WERI cell line (WERI-Rb1); experiment: Retinoblastoma cell proliferation inhibition assay (Cell Titer Glo, 72 hour incubation); format: cell-based, human
[3] = tested on: Human retinoblastoma tumour cells, Y79; experiment: Retinoblastoma in vivo model, retinoblastoma cell area on the retina by histology; design: species or system rabbits; conditions: for retinoblastoma cell areas from both H&E staining and antibody staining: culled at 5 weeks; for reduction in retinoblastoma cells in the eyes as compared to sham: p<0.01
Description: Human retinoblastoma tumour cells, Y79 (ATCC@ HTB-18), were grown in media consisting of RPMI 1640 containing 20% FBS, L-glutamine 200 mM (100×), penicillin/streptomycin 5,000 U/ml and amphotericin B 250 μg/ml, to a target suspension density of 3×10^5 cells/flask in 20 ml of media in a T75 flask. Thirty-two eyes in 16 immunosuppressed rabbits were inoculated with 200,000 cells in 30 μl of serum free media to the posterior retinal surface by intravitreal injection. The animals were studied in 4 groups of 8 eight eyes. Two groups were administered topotecan prepared in 30 μl of sterile saline injected intravitreally through a 29 gauge needle in the posterior region of the vitreous cavity near the tumour cells. One topotecan group was administered a 10 μg dose and a second group administered a 50 μg dose. The topotecan groups were administered the active agent formulation at 2, 3 and 4 weeks after tumour cell inoculation. […] A fourth group was treated with a sham injection of 30 μl sterile saline through a 29 gauge needle in the posterior region of the vitreous near the tumour cells at 2, 3 and 4 weeks after tumour cell inoculation. All animals were culled at 5 weeks to allow processing of the retina and retinoblastoma tumour cells on the retina for histological examination. Macro photography of the flat mounted retinae recorded tumour cell survival on the retinae and then representative sections were removed for fixation and subsequent processing for histology. All samples were cut at 5 μm and stained by H&E and replicate slides stained with human mitochondrial marker antibody to positively identify the human retinoblastoma cells. Slides were then scanned using a slide scanner (Histech or Hamamatsu S360) and retinoblastoma cell area on the retina quantified using CaseViewer software.
Representative histology images are shown in FIG. 4 with arrows indicating the retinoblastoma cells on the retina.

[4] = Ocular pharmacokinetic study, suprachoroidal administration of micelle formulation, tissue concentration by LCMS; format: in vivo, New Zealand White rabbits; conditions: 25 μg dose, micellular formulation, rabbit
From the text: Both solutions were filter sterilized by passage through a sterile 0.2 micron nylon syringe filter into a sterile vial to produce a sterile formulation. The mixture was vortex mixed to produce a micelle suspension. […] A flexible catheter with 250 micron OD and 140 micron ID was surgically introduced into the suprachoroidal space in the anterior region of the eye at the pars plana. The catheter was advanced posteriorly toward the posterior region of the suprachoroidal space. The catheter was configured to conduct light and provided illumination of the catheter tip and shaft to determine the catheter position and configuration by trans-scleral visualization. The illuminated tip of the catheter was used to position the catheter in the posterior region of the suprachoroidal space. The illuminated shaft of the catheter was used to manipulate and position the catheter to direct the injection toward the posterior region of the space. […] The eyes were examined by slit lamp in the anterior segment and by indirect ophthalmoscopy in the posterior segment prior to euthanasia for each time point at 1, 3, 7, 14 days post administration.

BJ cell line [5] = experiment: cells; conditions: Homo sapiens, 72 h

## Cc1cc2c(C(=O)NC[C@H](C)c3ccccc3)c(O)c(O)cc2c(O)c1-c1c(C)cc2c(C(=O)NC[C@H](C)c3ccccc3)c(O)c(O)cc2c1O [Sabutoclax]
Y79 cell line
  EC50: 316 nM
BJ cell line [1]
  EC50: > 3650 nM
[2]
  EC50: 211 nM

## CC(C)c1ccccc1Cc1cc(C(=O)Nc2ccc(S(=O)(=O)c3ccccc3C(C)(C)C)cc2)c(O)c(O)c1O [TW-37]
Y79 cell line
  EC50: 335 nM
BJ cell line [1]
  EC50: > 8760 nM
[3]; 10 μg in DMSO intravitreal at 3 and 4 weeks after inoculation
  retinoblastoma cell areas from both H&E staining and antibody staining: lower compared to sham
[3]; 10 μg intravitreal at 3 and 4 weeks
  reduction in retinoblastoma cells in the eyes as compared to sham: statistically significant reduction
[4]
  choroid concentration at 14 days: near baseline
  level of TW-37 in the vitreous: relatively low levels
  retina concentration at 14 days: near baseline
  time of peak concentration in the choroid: 3 days
  time of peak concentration in the retina: 7 days
  tissue exposure of TW-37 to the target retina after a single administration: 14 days
[2]
  EC50: 278 nM

## CC[C@@]1(O)C(=O)OCc2c1cc1n(c2=O)Cc2cc3c(CN(C)C)c(O)ccc3nc2-1 [Topotecan]
Y79 cell line; Homo sapiens
  EC50: 69 nM
BJ cell line [5]
  EC50: > 2570 nM
[3]; 10 μg intravitreal at 2, 3 and 4 weeks after inoculation
  retinoblastoma cell areas from both H&E staining and antibody staining: lower compared to sham
[3]; 50 μg intravitreal at 2, 3 and 4 weeks after inoculation
  retinoblastoma cell areas from both H&E staining and antibody staining: lower compared to sham
[3]; high dose (50 μg) intravitreal
  reduction in retinoblastoma cells in the eyes as compared to sham: statistically significant reduction
[2]; Homo sapiens
  EC50: 39 nM

## O=C(CCCCCCC(=O)Nc1ccccc1)NO [Vorinostat]
BJ cell line [5]
  EC50: > 54400 nM
